Experimental findings from patent US10526323B2, “Indazole and azaindazole substituted compounds as mGluR4 allosteric potentiators, compositions, and methods of treating neurological dysfunction” (Vanderbilt University, priority 2015, dated 2020) are described below.

Each structure is given as a SMILES string.

The assay addresses mGluR4 (UniProt Q14833). Description: mGluR4 potentiation assay: increase in response to an EC20 concentration of agonist (species not given). Type of assay: cell-based. The settings on record: EC50 for potentiation of mGluR4; table does not state human or rat. The gist of the method: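 Human mGluR4 was expressed in CHO cells read with a Ca2+-sensitive dye; rat mGluR4 was co-expressed with GIRK in […] read by thallium flux. Potentiation is the rise over agonist-alone response, with EC50 and maximal potentiation from non-linear fits.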
One may read the EC50 as the midpoint of the concentration-response curve. On to `Clc1nn(CC2CCC2)c2ccc(Nc3n[nH]c4cccnc34)cc12` [Example 285, N-(3-chloro-1-(cyclobutylmethyl)-1H-indazol-5-yl)-1H-pyrazolo[4,3-b]pyridin-3-amine], for which the EC50 came to 1980 nM.

Take `[2H]C([2H])(C)n1nc(C)c2cc(Nc3n[nH]c4cccnc34)ccc21` [Example 124, N-(1-(ethyl-1,1-d2)-3-methyl-1H-indazol-5-yl)-1H-pyrazolo[4,3-b]pyridin-3-amine]: the EC50 was 109 nM.

For `Cc1nn(CC(=O)O)c2ccc(Nc3n[nH]c4cccnc34)cc12` [Example 135, 2-(5-((1H-pyrazolo[4,3-b]pyridin-3-yl)amino)-3-methyl-1H-indazol-1-yl)acetic acid], the EC50 was 832 nM.

Consider `Cn1nc(C(=O)N2CCC(F)(F)C2)c2ccc(Nc3n[nH]c4cccnc34)cc21` [Example 172, (3,3-difluoropyrrolidin-1-yl)-[1-methyl-6-(1H-pyrazolo[4,3-b]pyridin-3-ylamino)indazol-3-yl]methanone], for which the EC50 came to 289 nM.

`Cc1nn(CCN2CCOCC2)c2ccc(Nc3n[nH]c4cccnc34)cc12` [Example 132, N-(3-methyl-1-(2-morpholinoethyl)-1H-indazol-5-yl)-1H-pyrazolo[4,3-b]pyridin-3-amine]: the EC50 came out at 330 nM.

On to `Cn1nc(-c2ccc(=O)[nH]c2)c2ccc(Nc3n[nH]c4cccnc34)cc21` [Example 179, 5-[1-methyl-6-(1H-pyrazolo[4,3-b]pyridin-3-ylamino)indazol-3-yl]-1H-pyridin-2-one], for which the EC50 is 2720 nM.

As for `Cc1nn(CC(F)(F)F)c2ncc(Nc3n[nH]c4cccnc34)cc12` [Example 253, 3-methyl-N-(1H-pyrazolo[4,3-b]pyridin-3-yl)-1-(2,2,2-trifluoroethyl)pyrazolo[3,4-b]pyridin-5-amine], the EC50 was 240 nM.

As to `C=C(c1nn(C)c2cc(Nc3n[nH]c4cccnc34)ccc12)C(F)(F)F` [Example 40, N-(1-methyl-3-(3,3,3-trifluoroprop-1-en-2-yl)-1H-indazol-6-yl)-1H-pyrazolo[4,3-b]pyridin-3-amine], the EC50 amounted to 147 nM.

Consider `Cn1nc(Oc2ccc(C#N)cn2)c2c(Cl)cc(Nc3n[nH]c4cccnc34)cc21` [Example 207, 6-[4-chloro-1-methyl-6-(1H-pyrazolo[4,3-b]pyridin-3-ylamino)indazol-3-yl]oxypyridine-3-carbonitrile], for which the EC50 was 482 nM.

Regarding `Cn1nc(C2CC2)c2ccc(Nc3n[nH]c4ccc(F)cc34)cc21` [Example 7, N-(3-cyclopropyl-1-methyl-1H-indazol-6-yl)-5-fluoro-1H-indazol-3-amine], the EC50 is 1230 nM.

Regarding `Cc1nn(CC2CC(C3CC3)=NO2)c2ccc(Nc3n[nH]c4cccnc34)cc12` (stereo not drawn) [Example 100, N-(1-((3-cyclopropyl-4,5-dihydroisoxazol-5-yl)methyl)-3-methyl-1H-indazol-5-yl)-1H-pyrazolo[4,3-b]pyridin-3-amine], the EC50 was 258 nM.

With `Cn1nc(C(=O)NC2CCC2)c2ccc(Nc3n[nH]c4cccnc34)cc21` [Example 176, N-cyclobutyl-1-methyl-6-(1H-pyrazolo[4,3-b]pyridin-3-ylamino)indazole-3-carboxamide], the EC50 is 653 nM.

Take `Cc1nn(C)c2ncc(Nc3n[nH]c4ccccc34)cc12` [Example 271, N-(1H-indazol-3-yl)-1,3-dimethyl-1H-pyrazolo[3,4-b]pyridin-5-amine]: the EC50 is greater than 10000 nM.

For `Cc1nn(C2CC2)c2ncc(Nc3n[nH]c4cccnc34)cc12` [Example 263, 1-cyclopropyl-3-methyl-N-(1H-pyrazolo[4,3-b]pyridin-3-yl)pyrazolo[3,4-b]pyridin-5-amine], the EC50 was 410 nM.

`Cc1nn(C2CCOCC2)c2ncc(Nc3n[nH]c4cccnc34)cc12` [Example 259, 3-methyl-N-(1H-pyrazolo[4,3-b]pyridin-3-yl)-1-tetrahydropyran-4-yl-pyrazolo[3,4-b]pyridin-5-amine]: the EC50 is 3700 nM.

Consider `Cc1ccc(-n2nc(C)c3cc(Nc4n[nH]c5cccnc45)ccc32)cc1` [Example 93, N-(3-methyl-1-(p-tolyl)-1H-indazol-5-yl)-1H-pyrazolo[4,3-b]pyridin-3-amine], for which the EC50 was greater than 10000 nM.

In the case of `Cn1nc(C(=O)N2CCOCC2)c2ccc(Nc3n[nH]c4cccnc34)cc21` [Example 167, [1-methyl-6-(1H-pyrazolo[4,3-b]pyridin-3-ylamino)indazol-3-yl]-morpholino-methanone], the EC50 stood at 1580 nM.

On to `Cn1nc(C2CC2)c2ccc(Nc3n[nH]c4ccccc34)cc21` [Example 12, N-(3-cyclopropyl-1-methyl-1H-indazol-6-yl)-1H-indazol-3-amine], for which the EC50 turned out to be 128 nM.

With `CC[C@H](C)Cn1nc(C)c2cc(Nc3n[nH]c4cccnc34)cnc21` [Example 155, 3-methyl-1-[(2S)-2-methylbutyl]-N-(1H-pyrazolo[4,3-b]pyridin-3-yl)pyrazolo[3,4-b]pyridin-5-amine], the EC50 turned out to be 160 nM.

`c1cnc2c(Nc3ccc4c(cnn4CC4CCC4)c3)n[nH]c2c1` [Example 80, N-(1-(cyclobutylmethyl)-1H-indazol-5-yl)-1H-pyrazolo[4,3-b]pyridin-3-amine]: the EC50 is 167 nM.

Turning to `Cc1cc(Cn2nc(C)c3cc(Nc4n[nH]c5nccnc45)ccc32)no1` [Example 69, N-(3-methyl-1-((5-methylisoxazol-3-yl)methyl)-1H-indazol-5-yl)-1H-pyrazolo[3,4-b]pyrazin-3-amine], the EC50 was determined as 145 nM.

Regarding `Cn1nc(C(=O)N2CCCC(F)(F)C2)c2ccc(Nc3n[nH]c4cccnc34)cc21` [Example 160, (3,3-difluoro-1-piperidyl)-[1-methyl-6-(1H-pyrazolo[4,3-b]pyridin-3-ylamino)indazol-3-yl]methanone], the EC50 came out at 888 nM.

`CC(C)n1ncc2cc(Nc3n[nH]c4nccnc34)cnc21` [Example 153, N-(1-isopropyl-1H-pyrazolo[3,4-b]pyridin-5-yl)-1H-pyrazolo[3,4-b]pyrazin-3-amine]: the EC50 was 413 nM.

As for `Cn1nc(N2CCOCC2)c2ccc(Nc3n[nH]c4cccnc34)cc21` [Example 35, N-(1-methyl-3-morpholino-1H-indazol-6-yl)-1H-pyrazolo[4,3-b]pyridin-3-amine], the EC50 was 992 nM.

With `Cc1nn(C2CCCC2)c2ccc(Nc3n[nH]c4cccnc34)cc12` [Example 74, N-(1-cyclopentyl-3-methyl-1H-indazol-5-yl)-1H-pyrazolo[4,3-b]pyridin-3-amine], the EC50 came out at 265 nM.

For the compound `Cc1c2cc(Nc3n[nH]c4cccnc34)ccc2nn1C1CCCC1` [Example 68, N-(2-cyclopentyl-3-methyl-2H-indazol-5-yl)-1H-pyrazolo[4,3-b]pyridin-3-amine], the EC50 is greater than 10000 nM.

Consider `Cn1nc(Oc2cccc(C#N)n2)c2ccc(Nc3n[nH]c4cccnc34)cc21` [Example 231, 6-((6-((1H-pyrazolo[4,3-b]pyridin-3-yl)amino)-1-methyl-1H-indazol-3-yl)oxy)picolinonitrile], for which the EC50 was 119 nM.

As to `Cc1nn(C)c2ncc(Nc3n[nH]c4cccnc34)cc12` [Example 268, N-(1,3-dimethyl-1H-pyrazolo[3,4-b]pyridin-5-yl)-1H-pyrazolo[4,3-b]pyridin-3-amine], the concentration giving a half-maximal response (EC50) is greater than 30000 nM.

`Cn1nc(C(=O)N2CC[C@H](F)C2)c2ccc(Nc3n[nH]c4cccnc34)cc21` [Example 171, [(3S)-3-fluoropyrrolidin-1-yl]-[1-methyl-6-(1H-pyrazolo[4,3-b]pyridin-3-ylamino)indazol-3-yl]methanone]: the EC50 was 765 nM.

As for `Cc1nn(C)c2cc(Nc3n[nH]c4cccnc34)ccc12` [Example 15, N-(1,3-dimethyl-1H-indazol-6-yl)-1H-pyrazolo[4,3-b]pyridin-3-amine], the EC50 came to 78 nM.

With `Cn1nc(C(=O)N2CC[C@@H](F)C2)c2ccc(Nc3n[nH]c4cccnc34)cc21` [Example 168, [(3R)-3-fluoropyrrolidin-1-yl]-[1-methyl-6-(1H-pyrazolo[4,3-b]pyridin-3-ylamino)indazol-3-yl]methanone], the EC50 was determined as 903 nM.

Turning to `Cc1cc(Cn2ncc3cc(Nc4n[nH]c5cccnc45)ccc32)no1` [Example 103, N-(1-((5-methylisoxazol-3-yl)methyl)-1H-indazol-5-yl)-1H-pyrazolo[4,3-b]pyridin-3-amine], the EC50 is 125 nM.

As for `COCCn1nc(C)c2cc(Nc3n[nH]c4cccnc34)cnc21` [Example 261, 1-(2-methoxyethyl)-3-methyl-N-(1H-pyrazolo[4,3-b]pyridin-3-yl)pyrazolo[3,4-b]pyridin-5-amine], the EC50 is 2330 nM.

For the compound `COCCn1nc(C)c2cc(Nc3n[nH]c4cccnc34)ccc21` [Example 133, N-(1-(2-methoxyethyl)-3-methyl-1H-indazol-5-yl)-1H-pyrazolo[4,3-b]pyridin-3-amine], the EC50 came to 379 nM.

With `Cc1nn(CCC(C)Cl)c2ccc(Nc3n[nH]c4cccnc34)cc12` (stereo not drawn) [Example 134, N-(1-(3-chlorobutyl)-3-methyl-1H-indazol-5-yl)-1H-pyrazolo[4,3-b]pyridin-3-amine], the EC50 was 77 nM.

For `Cc1cc(Nc2n[nH]c3cccnc23)cc2c1cnn2C` [Example 50, N-(1,4-dimethyl-1H-indazol-6-yl)-1H-pyrazolo[4,3-b]pyridin-3-amine], the EC50 amounted to 323 nM.

Take `Cn1nc(C2CC2)c2ccc(Nc3n[nH]c4cc(F)ccc34)cc21` [Example 11, N-(3-cyclopropyl-1-methyl-1H-indazol-6-yl)-6-fluoro-1H-indazol-3-amine]: the EC50 came to 4220 nM.

`Cc1nn(C2CCNCC2)c2ccc(Nc3n[nH]c4cccnc34)cc12` [Example 90, N-(3-methyl-1-(piperidin-4-yl)-1H-indazol-5-yl)-1H-pyrazolo[4,3-b]pyridin-3-amine]: the EC50 is greater than 10000 nM.

With `[2H]C([2H])(C)Oc1nn(C)c2cc(Nc3n[nH]c4cccnc34)ccc12` [Example 241, N-(3-(ethoxy-1,1-d2)-1-methyl-1H-indazol-6-yl)-1H-pyrazolo[4,3-b]pyridin-3-amine], the EC50 worked out at 356 nM.
